According to patent publication US10017481B2, “Conformationally constrained, fully synthetic macrocyclic compounds” (POLYPHOR AG, priority 2012, dated 2018):
Where two headings read alike, the source gives them in different places.

Tests used:
[1] = biological target: T1, Human recombinant cathepsin S (Homo sapiens, UniProt P25774); conditions: reference compound of the CatS assay; 0.1 μg/ml enzyme, acetate buffer pH 4.5, 25° C.; cited from earlier work
T1 construct: host or cells: murine myeloma NS0 cells

Human recombinant ECE-1 = biological target: T2, Human recombinant ECE-1 (Homo sapiens, UniProt P42892); assay: Endothelin converting enzyme-1 (ECE-1) enzyme assay; type: biochemical; conditions: for inhibition at 10 µM: read-out: % Inhibition at 10 μM
T2 construct: host or cells: murine myeloma NS0 cells
T2 sequence (P42892 1-770): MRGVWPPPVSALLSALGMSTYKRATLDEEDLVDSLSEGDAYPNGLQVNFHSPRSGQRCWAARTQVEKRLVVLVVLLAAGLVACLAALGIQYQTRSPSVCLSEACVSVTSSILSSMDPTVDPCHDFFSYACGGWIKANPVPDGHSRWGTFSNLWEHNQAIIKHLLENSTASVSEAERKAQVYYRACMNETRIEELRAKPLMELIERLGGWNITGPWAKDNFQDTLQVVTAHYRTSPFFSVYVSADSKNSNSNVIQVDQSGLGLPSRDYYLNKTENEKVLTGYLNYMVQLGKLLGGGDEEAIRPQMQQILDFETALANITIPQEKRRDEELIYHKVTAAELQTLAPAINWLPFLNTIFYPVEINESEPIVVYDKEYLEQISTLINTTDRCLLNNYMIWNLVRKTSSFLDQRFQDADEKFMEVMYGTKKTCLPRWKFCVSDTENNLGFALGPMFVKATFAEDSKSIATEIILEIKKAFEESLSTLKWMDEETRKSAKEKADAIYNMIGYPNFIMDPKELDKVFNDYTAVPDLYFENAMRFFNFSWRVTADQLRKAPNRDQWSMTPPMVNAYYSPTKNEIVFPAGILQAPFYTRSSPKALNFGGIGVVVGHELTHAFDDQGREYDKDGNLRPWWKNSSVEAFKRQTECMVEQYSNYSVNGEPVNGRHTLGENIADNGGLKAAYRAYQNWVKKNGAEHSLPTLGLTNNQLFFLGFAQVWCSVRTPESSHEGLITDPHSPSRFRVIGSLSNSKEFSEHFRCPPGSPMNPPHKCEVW
Experimental: (§1) 2. Enzyme Assays for the Peptidase Endothelin Converting Enzyme-1 (ECE-1) and for the Cysteine Protease Cathepsin S (CatS)
(§2) The assays were performed according to provider's (Ricerca Biosciences, LLC) protocols which in turn are based on literature procedures (for ECE-1 cf.: O. Valdenaire et al., Eur. J. Biochem. 1999, 264, 341-349; F. D. Russell, A. P. Davenport, Circ. Res. 1999, 84, 891-896; and for CatS: G P Shi et al., J. Biol. Chem. 1992, 267, 7258-62; D Brömme et al., J. Biol. Chem. 1993 268, 4832-4838.).
Human recombinant ECE-1 expressed in murine myeloma cells NS0 is used. Test compound and/or vehicle is preincubated with 20 ng/ml enzyme in modified MES buffer pH 6.0 for 15 minutes at 25° C. The reaction is initiated by addition of […] Mca-[…]Dnp) for another 60 minutes' incubation period. Determination of the amount of Mca-Arg-Pro-Pro-Gly-Phe-Ser-Ala formed is read […] at 320 nm/405 nm. Compounds are screened at […].
IC50 values were determined by a non-linear, least squares regression analysis using MathIQ™ (ID Business Solutions Ltd., UK). […] The Hill coefficient (nH), defining the slope of the competitive binding curve, was calculated using MathIQ™.

[2] = biological target: T1, Human recombinant cathepsin S; assay: Cathepsin S (CatS) enzyme assay; type: biochemical; conditions: for inhibition at 10 µM: 10 μM compound
Experimental: as §1, §2
Human recombinant cathepsin S expressed in a murine myeloma NS0 cells is used. Test compound and/or vehicle is preincubated with 0.1 μg/ml enzyme in modified acetate buffer pH 4.5 for 15 minutes at 25° C. The reaction is initiated by addition of […] Z-Leu-Arg-AMC for another 30 minutes' incubation period. Determination of the amount of AMC formed is read spectrofluorimetrically at 360 nm/465 nm. […]
IC50 values were determined by a non-linear, least squares regression analysis using MathIQ™ (ID Business Solutions Ltd., UK). Inhibition constants K were calculated according to the equation of Cheng and Prusoff (Y. Cheng, W. H. Prusoff, Biochem. Pharmacol. 1973, 22, 3099-3108) using the observed IC50 of the tested compound, the concentration of radioligand employed in the assay, and the historical values for the KD of the ligand. The Hill coefficient (nH), defining the slope of the competitive binding curve, was calculated using MathIQ™.

[3] = biological target: T3, Bombesin receptor subtype 3 (BB3 receptor) (Homo sapiens, UniProt P32247); assay: Ca2+ flux (FLIPR) assay, BB3 receptor, agonist/antagonist mode; type: cell-based; conditions: agonist mode
T3 construct: expressed in transfected cells; host or cells: Ca2+ optimized hematopoietic cell lines (rat)
T3 sequence (P32247 1-399): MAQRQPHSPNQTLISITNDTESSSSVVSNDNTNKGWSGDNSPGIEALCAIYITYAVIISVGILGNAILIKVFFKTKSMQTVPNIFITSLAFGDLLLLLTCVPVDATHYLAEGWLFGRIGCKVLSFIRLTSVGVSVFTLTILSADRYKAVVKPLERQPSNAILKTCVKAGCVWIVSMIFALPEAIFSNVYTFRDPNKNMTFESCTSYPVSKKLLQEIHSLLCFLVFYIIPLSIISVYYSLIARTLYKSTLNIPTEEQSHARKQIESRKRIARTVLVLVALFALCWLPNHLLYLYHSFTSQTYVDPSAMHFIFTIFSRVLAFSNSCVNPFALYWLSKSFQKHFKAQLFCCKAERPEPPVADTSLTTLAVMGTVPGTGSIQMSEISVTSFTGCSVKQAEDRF
Experimental: Biological and Pharmacological Methods 1. Ca^2+ Flux Assays for the GPCRs Oxytocin Receptor (OT Receptor), Thyrotropin-Releasing Hormone Receptor (TRH Receptor) and Bombesin Receptor Subtype 3 (BB3 Receptor)
Assays were performed on a FLIPR^TETRA fluorometric imaging plate reader (Molecular Devices) with ScreenWorks Version 2 (Molecular Devices) as device operating and data analysis software.
Dose dependent agonist and antagonist activities were determined. Percentage activation and percentage inhibition values were determined.
Percentage activation was determined upon initial addition of the sample compounds followed by 10 minutes' incubation at 25° C. Following compound incubation, reference agonists were added at EC80 to determine percentage inhibition.
Reference agonists were purchased from reputable commercial vendors and prepared according to each ligand's specifications. All handling of ligands were done to ensure proper control throughout the experiments.
Example compounds were weighed on a Microbalance (Mettler MX5) and dissolved in 100% DMSO to a final concentration of 2.5 mM and subsequently diluted into the assay buffer.
The assay buffer was a supplemented HBSS (Hank's Balanced Salt Solution). HBSS was supplemented with 20 mM HEPES (4-(2-hydroxyethyl)-piperazin-1-ethansulfonic acid) and 2.5 mM Probenecid (Sigma P8761).
GPCR assays were performed using Ca^2+ optimized hematopoietic cell lines (rat) with cultures never exceeding 90% confluency. Cells were harvested and seeded (from cultures at less than 90% confluency) at 50000 cells/well for a 96-well plate (12500 cells/well for 384). After seeding, the assay plates were incubated for 45 minutes at room temperature. After room temperature incubation, the assay plates were incubated at 37° C. 5% CO2 for 24 hours prior to assaying.
All GPCR assays were performed using Fluo-8 Ca^2+ dye.
Ca^2+ dye was prepared at 1× dye concentration in GPCR assay buffer. After 24 hours of incubation, cells were washed with GPCR assay buffer, and then Ca^2+-dye (100 μL/well) was added.
The plates were incubated for 90 minutes at 30° C. 5% CO2 prior to FLIPR assay.
Compound plates were prepared to add 50 μL/well during the agonist assay mode. During the FLIPR assay, 50 μL/well from the compound plate was diluted 3-fold into the existing 100 μL/well from the dye loading step. Therefore all compounds were prepared as 3× the final concentration desired in the assay.
After completion of the first single addition assay run, assay plate was removed from the FLIPR Tetra and placed at 25° C. for 7 minutes before antagonist assay.
Using the EC80 values determined during the agonist assay, all pre-incubated sample compound and reference antagonist (if applicable) wells were stimulated at the EC80 of the reference agonist. As reference ligands for these assays their obvious natural ligands oxytocin (OT), thyrotropin-releasing hormone (TRH) and bombesin (6-14) [BN(6-14)] were used.
After the addition of the reference agonist fluorescence was monitored for 180 sec using FLIPR Tetra.
From the FLIPR data, with negative control correction enabled, the maximum statistic for each well was exported and percentage activation relative to Emax control was calculated.

T1 sequence (P25774 115-331): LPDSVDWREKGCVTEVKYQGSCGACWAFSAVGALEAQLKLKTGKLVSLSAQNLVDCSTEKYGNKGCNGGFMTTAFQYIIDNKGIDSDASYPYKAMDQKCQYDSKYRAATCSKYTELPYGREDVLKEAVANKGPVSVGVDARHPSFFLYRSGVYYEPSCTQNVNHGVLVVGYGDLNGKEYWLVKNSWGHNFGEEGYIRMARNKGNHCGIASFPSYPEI

| Compound | IC50 (Human recombinant ECE-1) | inhibition at 10 µM (Human recombinant ECE-1) | IC50 [2] | inhibition at 10 µM [2] | Agonist activity % activation at 12.5 μM [3] | other results |
| --- | --- | --- | --- | --- | --- | --- |
| CC(C)C[C@H](NC(=O)[C@H]1O[C@@H]1C(=O)O)C(=O)NCCCCN=C(N)N [E-64] |  |  |  |  |  | IC50 [1]: 0.0014 µM |
| CN1CCC[C@H](NC(=O)OCc2ccccc2)C(=O)N2C[C@@H](NC(=O)Cc3ccc4ccccc4c3)C[C@H]2COc2ccccc2-c2cccc(c2)C1=O [Ex. 18, benzyl N-[(10S,12S,16S)-20-methyl-12-{[2-(2-naphthyl)acetyl]amino}-15,21-dioxo-8-oxa-14,20-diazatetracyclo[20.3.1.0^2,7.0^10,14]hexacosa-1(26),2,4,6,22,24-hexaen-16-yl]carbamate] | 3.01 µM | 98% | 3.65 µM | 82% |  |  |
| CN1CCC[C@H](NC(=O)Cc2ccccc2)C(=O)N2C[C@@H](NC(=O)Cc3ccc4ccccc4c3)C[C@H]2COc2ccccc2-c2cccc(c2)C1=O [Ex. 25, N-[(10S,12S,16S)-20-methyl-15,21-dioxo-16-[(2-phenylacetyl)amino]-8-oxa-14,20-diazatetracyclo[20.3.1.0^2,7.0^10,14]hexacosa-1(26),2,4,6,22,24-hexaen-12-yl]-2-(2-naphthyl)acetamide] | 4.28 µM | 97% | 3.18 µM | 87% |  |  |
| CN1CCC[C@H](NC(=O)c2ccccc2)C(=O)N2C[C@@H](NC(=O)Cc3ccc4ccccc4c3)C[C@H]2COc2ccccc2-c2cccc(c2)C1=O [Ex. 26, N-[(10S,12S,16S)-20-methyl-12-{[2-(2-naphthyl)acetyl]amino}-15,21-dioxo-8-oxa-14,20-diazatetracyclo[20.3.1.0^2,7.0^10,14]hexacosa-1(26),2,4,6,22,24-hexaen-16-yl]benzamide] | 4.07 µM | 98% | 3.83 µM | 81% |  |  |
| CN1CC[C@H](NC(=O)Cc2ccc3ccccc3c2)C(=O)N2C[C@@H](O)C[C@H]2COc2ccsc2-c2cc(n(C)n2)C1=O [Ex. 265, N-[(9S,11S,15S)-11-hydroxy-18,21-dimethyl-14,19-dioxo-7-oxa-3-thia-13,18,21,22-tetraazatetracyclo[18.2.1.0^2,6.0^9,13]tricosa-1(22),2(6),4,20(23)-tetraen-15-yl]-2-(2-naphthyl)acetamide] |  |  |  |  | 84% | EC50 [3]: 0.63 µM |
| CN1CC[C@H](NC(=O)Cc2cccc3ccccc23)C(=O)N2C[C@@H](O)C[C@H]2COc2ccsc2-c2cc(n(C)n2)C1=O [Ex. 267, N-[(9S,11S,15S)-11-hydroxy-18,21-dimethyl-14,19-dioxo-7-oxa-3-thia-13,18,21,22-tetraazatetracyclo[18.2.1.0^2,6.0^9,13]tricosa-1(22),2(6),4,20(23)-tetraen-15-yl]-2-(1-naphthyl)acetamide] |  |  |  |  | 61% |  |
| CO[C@H]1C[C@H]2COc3ccsc3-c3cc(n(C)n3)C(=O)N(C)CC[C@H](NC(=O)Cc3ccc4ccccc4c3)C(=O)N2C1 [Ex. 275, N-[(9S,11S,15S)-11-methoxy-18,21-dimethyl-14,19-dioxo-7-oxa-3-thia-13,18,21,22-tetraazatetracyclo[18.2.1.0^2,6.0^9,13]tricosa-1(22),2(6),4,20(23)-tetraen-15-yl]-2-(2-naphthyl)acetamide] |  |  |  |  | 60% | EC50 [3]: 0.78 µM |
| CN1CC[C@H](NCCc2ccc3ccccc3c2)C(=O)N2C[C@@H](O)C[C@H]2COc2ccsc2-c2cc(n(C)n2)C1=O [Ex. 282, (9S,11S,15S)-11-hydroxy-18,21-dimethyl-15-{[2-(2-naphthyl)ethyl]amino}-7-oxa-3-thia-13,18,21,22-tetraazatetracyclo[18.2.1.0^2,6.0^9,13]tricosa-1(22),2(6),4,20(23)-tetraene-14,19-dione] |  |  |  |  | 39% |  |
